# In patent US9717721B2, “Use of aryl-quinolin derivatives as inhibitors of vasculogenic mimicry” (TaiRx Inc., priority 2015, dated 2017):
# Experiments:
# [1] = tested on: C8161 aggressive melanoma cells; experiment: VM network formation in three-dimensional MATRIGEL, C8161 cells; format: cell-based, human; details: for VM network formation: all tested concentrations
# Protocol: (§1) Aggressive human melanoma (C8161 or SK-MEL28; 1×10^5) cells were seeded into a three-dimensional polymerized MATRIGEL™ (75 μl) for VM network analysis. C8161 or SK-MEL28 cells were treated for 24 h with 0.5, 1, 5, 10, 25 or 50 or 100 nM of TRX-818 at 5 or 24 h after cell attachment. Another set of melanoma cells were seeded onto a plastic dish and treated for the same amount of time before the cell viability of C8161 or SK-MEL28 cells was determined using the Guava Nexin Assay (Millipore, USA).
# (§2) The VM network image was taken using a confocal laser scanning microscope equipped with an environmental, chamber to track the response of cancer cells to the test compound. The images were then digitized and subsequently analyzed using the Angiosys software. Four images per sample were analyzed to quantify the number of junctions and total tubule length of VM formation. Changes were presented in percentage relative to the vehicle control. Sterile deionized water (tissue-culture grade) was used as the vehicle control.
# (§3) Aggressive human melanoma (C8161, 7.5×10^4) cells were seeded as disclosed in Example 1. C8161 cells were treated tor 4 h or 24 h with 0.3, 1 or 5 nM of TRX-818M1. Another set of melanoma cells were seeded onto a plastic dish and treated for the same amount of time before the cell viability of C8161 cells was determined.
# [2] = tested on: SK-MEL-28 aggressive human melanoma cells; experiment: Loss of pre-formed VM network in SK-MEL-28 cells on MATRIGEL; format: cell-based; details: 100 nM
# Protocol: TRX-818 M1 (i.e., compound No. 38) structurally similar compounds were tested for their effect on inhibition of vasculogenic mimicry. Aggressive human melanoma (SK-MEL-28 from ATCC®; 7.5×10^4 mL medium) cells were seeded onto a three-dimensional polymerized MATRIGEL™-coated 24-well plate. After 18 h of cell seeding, VM network was formed. The medium was then replaced with negative controls (untreated and DMSO treated controls), a positive control (100 nM of TRX-818M1) or 100 nM of each testing compound.
# [3] = tested on: HCT-116 orthotopic human colon cancer xenograft; experiment: HCT-116 orthotopic human colon cancer xenograft model; format: in vivo, mice; details: for animals found dead prior to study termination: ten mice/group
# Protocol: The inhibitory effect of TRX-818 on tumor growth and VM formation of HCT-116, a highly metastatic colon tumor, was examined in a HCT-116 orthotopic xenograft model. The effect of TRX-818 was evaluated on the formation of the vascular or vascular-like (vasculogenic mimicry, VM) network by immunohistochemistry staining (IHC) in orthotopic xenograft human colon cancer model inoculated with HCT116 colon cancer cell lines
# Six groups were set in this study (ten mice/group). There were: Group 1, TRX-818 at 20 mg/kg given as oral administration; Group 2, TRX-818 at 50 mg/kg given as oral administration; Group 3, TRX-818 at 100 mg/kg given as oral administration; Group 4, TRX-818 at 20 mg/kg given as intravenous injection; Group 5, Irinotecan at 50 mg/kg given as intraperitoneal injection; Group 6, vehicle group. Dose schedule for G1, G2, G3 and G6 was QD×28 and for G4 was QOD×7. Body weights were monitored for safety evaluation. Tumor size and tumor weight were measured at the end of in-life study. The percentage of tumor growth inhibition (TGI %) was calculated at the termination of the study for anti-tumor effect evaluation. The average body weight of study mice on Day 1 was ˜20 gram and decreased to ˜17-19 gram at the end of study (Day 42)
# At the end of 28-day dosing, CO2 anesthesia (1 min) followed by cervical dislocation was used for mice euthanasia in the study prior to tumors and lungs excision. First, a ventral midline incision was made and colon with primary tumor was excised and collected. The tumor collection was completed in 3 minutes after euthanasia. The tissues were rinsed with PBS to remove the blood before fixation.
# The number of channels with CD31^+/red blood cell (RBC)^+ or CD31^−/RBC^+ were counted on the whole section of each sample in each group, and the number of vessels with CD31 positive or negative staining were counted based on 5 light fields (200×) under microscope. The vascular network represented by the CD31^+/RBC^+ staining whereas the VM network represented by CD31^−/RBC^+ staining, because the VM formation is independent of vascular endothelial cells. The scoring was conducted by blinded, objective observer.
# [4] = tested on: Aggressive human melanoma (C8161 or SK-MEL28) cells; experiment: Quantification of number of junctions and total tubule length of VM formation (Angiosys); format: cell-based
# Protocol: as §1, §2
# [5] = tested on: Notch4 intracellular domain (Notch 4 ICD); experiment: qRT-PCR mRNA level of Notch4 ICD in C8161 cells; format: cell-based, human; details: 10 nM
# Protocol: (§4) To determine whether TRX-818 reduced the VM network formation by altering the levels of the essential proteins for VM, its effect on Nodal, Notch4, VE-cadherin (CDHE5) or ephrin receptor A2 (Eph A2) expression was determined using qRT-PCR. 2×10^6 of aggressive human melanoma (C8161) cells were treated with 10 nM TRX-818 for 8, 24, 48, or 72 h. Sterile deionized water (tissue-culture grade) was used as vehicle.
# VE-cadherin (CDH5) = experiment: qRT-PCR mRNA level of CDH5 in C8161 cells; format: cell-based, human; details: 10 nM
# Protocol: as §4
# Pro-Nodal = experiment: Immunoblotting of Pro-Nodal protein in C8161 cells; format: cell-based, human; details: 10 nM
# Protocol: (§5) To further understand how TRX-818 alters the signaling pathways required for VM network formation, the protein levels of Pro-Nodal, Smad2, and phosphorylated Smad2 (P-Smad2) were determined using immunoblotting analysis. On the day of study, TRX-818 was prepared as described in Example 1, C8161 cells were untreated (control) or treated with 10 nM TRX-818 for 1, 4, 8, and 24 h. Protein expression of Nodal and total Smad2, and P-Smad2 was analyzed by immunoblotting analysis, 5×10^6 aggressive human melanoma (C8161) cells were seeded onto a plastic dish in the presence of 10 nM TRX-818, and total proteins were collected for analysis. To quantify the protein levels of Nodal and P-Smad2, 40 μg and 25 μg of total proteins were used for SDS-PAGE and immunoblotting, respectively. The protein level of β-actin was used for normalization to assure equal protein loading.
# [6] = tested on: phosphorylated Smad2 (P-Smad2); experiment: Immunoblotting of phosphorylated Smad2 in C8161 cells; format: cell-based, human; details: 10 nM
# Protocol: as §5
# Smad2 = experiment: Immunoblotting of total Smad2 in C8161 cells; format: cell-based, human; details: 10 nM
# Protocol: as §5
# Nodal = experiment: qRT-PCR mRNA level of Nodal in C8161 cells; format: cell-based, human; details: 10 nM
# Protocol: as §4
# SK-MEL28 cancer cells = experiment: VM network formation in three-dimensional MATRIGEL, SK-MEL28 cells; format: cell-based, human; details: 24 h treatment
# Protocol: as §1, §2
# C8161 cells = experiment: Cell viability of C8161 cells (Guava Nexin Assay); format: cell-based; details: higher concentrations in the nM range
# Protocol: as §1, §3
compound,measurement,setting,value
"O=c1cc(-c2ccccc2F)[nH]c2cc3c(cc12)OCO3 [CHM-2133, 2-(2-fluorophenyl)-6,7-methylenedioxyquinolin-4-one]",concentration effective as vascular disrupting agent,[1],~0.3 nM
same,VM network formation,[1],inhibited
"COc1cc2c(cc1O)N=C(c1ccccc1F)CC2=O [Compound 43, 2-(2-Fluorophenyl)-7-hydroxy-6-methoxyquinolin-4-one]",loss of VM network compared to negative controls,[2]; 5 h post treatment,mild loss of VM network
same,loss of VM network compared to negative controls,[2]; 24 h post treatment,marked loss of VM network
"COc1ccc2[nH]c(-c3cccc(F)c3)cc(=O)c2c1OP(=O)(O)O [Compound 52, 2-(3-Fluorophenyl)-6-methoxy-4-oxo-1,4-dihydroquinolin-5-yl dihydrogen phosphate]",loss of VM network compared to negative controls,[2]; 5 h post treatment,mild loss of VM network
same,loss of VM network compared to negative controls,[2]; 24 h post treatment,marked loss of VM network
"O=c1cc(-c2cccc(OP(=O)(O)O)c2)[nH]c2ccc(N3CCCC3)cc12 [Compound 147, 3-(4-Oxo-6-(pyrrolidin-1-yl)-1,4-dihydroquinolin-2-yl)phenyl dihydrogen phosphate]",loss of VM network compared to negative controls,[2]; 5 h post treatment,mild loss of VM network
same,loss of VM network compared to negative controls,[2]; 24 h post treatment,marked loss of VM network
O=c1cc(-c2cccc(F)c2)[nH]c2cc3c(cc12)OCO3 [Compound A6],loss of VM network compared to negative controls,[2]; 5 h post treatment,mild loss of VM network
same,loss of VM network compared to negative controls,[2]; 24 h post treatment,marked loss of VM network
O=c1cc(-c2cccc(Cl)c2)[nH]c2ccc3c(c12)OCO3 [Compound B1],loss of VM network compared to negative controls,[2]; 5 h post treatment,mild loss of VM network
same,loss of VM network compared to negative controls,[2]; 24 h post treatment,marked loss of VM network
COc1cccc(-c2cc(=O)c3c(O)c(OC)ccc3[nH]2)c1 [Compound B3],loss of VM network compared to negative controls,[2]; 5 h post treatment,mild loss of VM network
same,loss of VM network compared to negative controls,[2]; 24 h post treatment,marked loss of VM network
CN(C)c1ccc2[nH]c(-c3cc(O)cc(F)c3)cc(=O)c2c1 [Compound C4],loss of VM network compared to negative controls,[2]; 5 h post treatment,mild loss of VM network
same,loss of VM network compared to negative controls,[2]; 24 h post treatment,marked loss of VM network
O=c1cc(-c2cc(O)cc(F)c2)[nH]c2ccc(N3CCCC3)cc12 [Compound C6],loss of VM network compared to negative controls,[2]; 5 h post treatment,mild loss of VM network
same,loss of VM network compared to negative controls,[2]; 24 h post treatment,marked loss of VM network
"CCc1c2c(nc3ccc(OC(=O)N4CCC(N5CCCCC5)CC4)cc13)-c1cc3c(c(=O)n1C2)COC(=O)[C@]3(O)CC [Irinotecan, reference compound]","Average number of channels (CD31−/RBC+, VM) in the whole tumor section per group, Mean ± SEM","[3]; 50 mg/kg Q4D×3, i.p.",1.1 ± 0.4
"COc1ccc2[nH]c(-c3cccc(F)c3)cc(=O)c2c1OP(=O)(O)O [TRX-818, 2-(3-fluorophenyl)-6-methoxy-4-oxo-1,4-dihydroquinolin-5-yl phosphate]","No. of junctions, relative to vehicle control",[4]; 1 nM,−16.5%
same,"Total tubule length, relative to vehicle control",[4]; 1 nM,−15.1%
same,"No. of junctions, relative to vehicle control",[4]; 5 nM,−43.1%
same,"Total tubule length, relative to vehicle control",[4]; 5 nM,−23.3%
same,maximal reduction of cell junctions,[4]; 5 nM,43%
same,"No. of junctions, relative to vehicle control",[4]; 10 nM,−35.9%
same,"Total tubule length, relative to vehicle control",[4]; 10 nM,−26.0%
same,"No. of junctions, relative to vehicle control",[4]; 50 nM,−42.9%
same,"Total tubule length, relative to vehicle control",[4]; 50 nM,−47.5%
same,maximal reduction of total tubule length,[4]; 50 nM,48%
same,decrease of Notch4 ICD mRNA level compared to control,[5]; 8 hours,75%
same,mrna remaining at 0.01 µM,"[5]; Homo sapiens, 72 h, read-out: Notch4 ICD mRNA level remaining, % of control cells",50%
same,decrease of CDH5 mRNA level compared to control,VE-cadherin (CDH5); 8 hours,70%
same,mrna remaining at 0.01 µM,"VE-cadherin (CDH5); Homo sapiens, 72 hours, read-out: CDH5 mRNA level remaining, % of control cells",50%
same,animals found dead prior to study termination,[3]; 20 mg/kg QOD group (intravenous),two
same,animals found dead prior to study termination,[3]; 50 mg/kg QD group,one
same,reduction of tumor volume compared to the vehicle group,"[3]; 50 mg/kg oral QD×28, Day 43 post tumor inoculation",49%
same,"Average number of channels (CD31−/RBC+, VM) in the whole tumor section per group, Mean ± SEM","[3]; 100 mg/kg QD×28, p.o.",0.8 ± 0.3
same,MED (Minimum Effective Dose),[3]; orally administered,50 mg/kg
same,concentration at which VM network formation was inhibited,[1]; 24 h treatment,5 to 10 nM
same,decrease in Pro-Nodal protein level vs control cells,Pro-Nodal; 24 h,63%
same,decrease in Pro-Nodal protein level vs control cells,Pro-Nodal; four to eight hours,28%
same,decrease in Nodal protein expression (detected as Pro-Nodal) vs control cells,Pro-Nodal; one hour,4%
same,P-Smad2/Smad2 post-treatment protein level (relative to untreated control cells),[6]; 1 hour,−33%
same,P-Smad2 post-treatment protein level (relative to untreated control cells),[6]; 1 hour,−4%
same,P-Smad2/Smad2 post-treatment protein level (relative to untreated control cells),[6]; 4 hours,−60%
same,P-Smad2 post-treatment protein level (relative to untreated control cells),[6]; 4 hours,−57%
same,P-Smad2/Smad2 post-treatment protein level (relative to untreated control cells),[6]; 8 hours,−40%
same,P-Smad2 post-treatment protein level (relative to untreated control cells),[6]; 8 hours,−39%
same,P-Smad2/Smad2 post-treatment protein level (relative to untreated control cells),[6]; 24 hours,−76%
same,P-Smad2 post-treatment protein level (relative to untreated control cells),[6]; 24 hours,−73%
same,Smad2 post-treatment protein level (relative to untreated control cells),Smad2; 1 hour,+43%
same,Smad2 post-treatment protein level (relative to untreated control cells),Smad2; 4 hours,+9%
same,Smad2 post-treatment protein level (relative to untreated control cells),Smad2; 8 hours,+3%
same,Smad2 post-treatment protein level (relative to untreated control cells),Smad2; 24 hours,+13%
same,decrease of Nodal mRNA level compared to control,Nodal; 8 hours,80%
same,mrna remaining at 0.01 µM,"Nodal; Homo sapiens, 72 h, read-out: Nodal mRNA level remaining, % of control cells",70%
same,concentration at which VM network formation was inhibited,SK-MEL28 cancer cells,5 to 10 nM
"COc1ccc2[nH]c(-c3cccc(F)c3)cc(=O)c2c1O [TRX-818M1, 2-(3-Fluorophenyl)-5-hydroxy-6-methoxyquinolin-4-one]",concentration effective as vascular disrupting agent,[1],~0.3 nM
same,VM network formation,[1],inhibited
same,cell death,C8161 cells,induced cell death
same,loss of VM network compared to negative controls,[2]; 5 h post treatment,mild loss of VM network
same,loss of VM network compared to negative controls,[2]; 24 h post treatment,marked loss of VM network
